Data published in patent EP1165610B1, “PEPTIDE USEFUL IN TREATING MULTIPLE SCLEROSIS AND A PHARMACEUTICAL COMPOSITION COMPRISING THE SAME” (TECNOGEN S.C.P.A., priority 1999, dated 2006).
Ends that are not written are not given here.

Tested on: SJL female mice
Assay: In vivo activity in experimental allergic encephalitis (EAE) model, pre-immunization with peptide before EAE induction
Conditions: for Incidence of EAE: number of mice with clinical EAE/number of mice immunized, after two weeks EAE induced with 300 nmoles P81-100 in CFA plus pertussis toxin, observed day 9 up to 60
Procedure: The in vivo activity of the peptide compounds of formula (I) (SEQ ID NO: 1), were evaluated on four groups of SJL female mice, used at the age of 6-15 weeks. This strain of mice has been genetically selected for its ability to develop experimental allergic encephalitis (EAE).
Two groups of mice have been immunized intraperitoneally with the peptide compound of formula (I) (SEQ ID NO: 1) (300 nmoles), dissolved in 0.05 ml of physiological solution and then emulsified with 0.05 ml of incomplete Freund's adjuvant (IFA) (Sigma, Italy).
As positive and negative control, P81-100 (SEQ ID NO: 5) and IFA alone were used respectively.
After two weeks EAE was induced in all groups by challenge with 300 nmoles of P81-100 (SEQ ID NO: 5) dissolved in 0.1 ml of physiological solution and then emulsified with 0.1 ml of complete Freund's adjuvant (CFA) (Sigma, Italy).
Pertussis toxin (200 ng) (Fluka Chemie AG, Switzerland) was injected intravenously at the time of immunization and 2 days later. The role of pertussis toxin is to enhance the migration of autoreactive lymphocytes through the encephalic barrier (Bernard, et al., "J. Immunol." 114, 1537-1540, 1975).
Mice were observed daily beginning at day 9 up to 60 for clinical signs of EAE and were graded according to the following clinical scale: 1, limp tail; 2, partial hind limp paralysis; 3, complete hind limp paralysis; 4, hind and front limp paralysis; 5, moribund (Broke S. et al., "Nature", 379, 343-346, 1996). Grade 5 mice were euthanized.

[1] = 300 nmoles intraperitoneally in IFA

Compound	Day of on-set (mean day of onset ± SD, 300 nmoles intraperitoneally in IFA, after two weeks EAE induced with 300 nmoles P81-100 in CFA)	Severity (mean severity of sick mice ± SD, clinical scale 1-5, 300 nmoles intraperitoneally in IFA, after two weeks EAE induced with 300 nmoles P81-100 in CFA)	Incidence of EAE [1]	development of EAE (result in words, summary of Table 1, SJL mice treated with peptide before EAE induction)
CC[C@H](C)[C@H](NC(=O)[C@H](CC(N)=O)NC(=O)[C@H](CCCCN)NC(=O)[C@H](Cc1ccccc1)NC(=O)[C@H](Cc1ccccc1)NC(=O)[C@H](Cc1c[nH]cn1)NC(=O)[C@@H](NC(=O)[C@@H](NC(=O)[C@@H]1CCCN1C(=O)[C@@H](N)CC(N)=O)C(C)C)C(C)C)C(=O)N[C@H](C(=O)N[C@H](C(=O)N1CCC[C@H]1C(=O)N[C@@H](CCCNC(=N)N)C(=O)N[C@H](C(=O)N1CCC[C@H]1C(=O)N1CCC[C@H]1C(=O)N1CCC[C@H]1C(=O)N[C@@H](CO)C(=O)N[C@@H](CCC(N)=O)C(=O)O)[C@@H](C)O)[C@@H](C)O)C(C)C [Peptide P81-100]	33±4.24	1.0±0	2/17	–
NGVGHGFGNGVGPGTGPGSG [Peptide I]	–	–	0/17	didn't develop EAE
